Test results taken from publication PMC9786741, “Elucidating the Role of Santalol as a Potent Inhibitor of Tyrosinase: In Vitro and In Silico Approaches” (Molecules, 2022).

Molecular target: T1, tyrosinase (mushroom tyrosinase, polyphenoloxidase EC 1.14.18.1)
T1 construct: gene PPO3; native enzyme from mushroom caps; ammonium sulphate, DEAE-cellulose, Superdex 200; single 63 kDa band on SDS-PAGE; isoenzyme not determined
Assay: isothermal titration calorimetry
Design: species or system Agaricus bisporus
Settings: 25 °C, pH 6.8, 25 mM phosphate; step 1 (strongest) of three-step sequential binding model
From the text: isothermal titration calorimetry on tyrosinase (mushroom tyrosinase, polyphenoloxidase EC 1.14.18.1)

Kd: 1270 nM
SMILES: C=C1C2CCC(C2)C1(C)CC/C=C(/C)CO (stereo not shown) [santalol]
